Data from article PMC8922279, “Identification of β-Lactams Active against Mycobacterium tuberculosis by a Consortium of Pharmaceutical Companies and Academic Institutions” (ACS Infectious Diseases, 2022).
Like-named read-outs stand apart in the source and are kept apart here.

Experiments:
Mtb H37Rv [1] = assay: MIC90 against replicating (R) Mtb H37Rv, with or without clavulanate; format: cell-based, Mycobacterium tuberculosis; settings: Table S4; for Mtb H37Rv R + CLAV (MIC90): clavulanate 4 μg/mL; for Mtb H37Rv R (MIC90): no clavulanate
Mtb H37Rv [2] = assay: MIC90 against nonreplicating (NR, 4-stress) Mtb H37Rv, with or without clavulanate; format: cell-based, Mycobacterium tuberculosis; settings: 4-stress nonreplicating, Table S4; for Mtb H37Rv NR + CLAV (MIC90): clavulanate 4 μg/mL; for Mtb H37Rv NR (MIC90): no clavulanate
E. coli = assay: Microbial spectrum, E. coli; format: cell-based, Escherichia coli; settings: clavulanate 4 μg/mL; Table S4
P. aeruginosa = assay: Microbial spectrum, P. aeruginosa; format: cell-based, Pseudomonas aeruginosa; settings: clavulanate 4 μg/mL; Table S4
S. aureus = assay: Microbial spectrum, S. aureus; format: cell-based, Staphylococcus aureus; settings: clavulanate 4 μg/mL; Table S4
C. albicans = assay: Microbial spectrum, C. albicans; format: cell-based, Candida albicans; settings: no clavulanate; Table S4
HepG2 cells = assay: Cytotoxicity against HepG2 cells (CellTiter-Glo); format: cell-based, human; settings: Table S4
Experimental: Compounds were tested for cytotoxicity against HepG2 cells as previously described.[48],[69],[70] Briefly, cells were exposed to compounds for 48–72 h, and viability was measured using CellTiter-Glo (Promega).

wild-type Mtb H37Rv = format: in vivo, 129sv DHP-1 knockout mice; settings: for Log10 CFU per mouse (lungs), Mean: 50 mg/kg sc bid + clavulanate 100 mg/kg po bid, days 9-15, lungs day 16, untreated day 16 mean 9.1
[3] = 300 mg/kg sc, uninfected DHP-1 mice
[4] = female, 129sv DHP-1 knockout, mouse, in vivo
in vivo [5] = settings: female, CD-1, mouse
in vivo [6] = settings: DHP-1 knockout, mouse, sc, 300 mg/kg
in vivo [7] = settings: female, 129sv DHP-1 knockout, mouse, sc, 50 mg/kg
physchem [8] = settings: simulated gi fluid, pH 6.5, FaSSIF Stability, % remaining
physchem [9] = settings: simulated gi fluid, pH 1.2
in vitro [10] = settings: male, CD-1, mouse, plasma, Plasma stability % Remaining
in vitro [11] = settings: SD, rat, plasma, Plasma stability % Remaining
in vitro [12] = settings: beagle, dog, plasma
in vitro [13] = settings: monkey, plasma
in vitro [14] = settings: human, plasma, Plasma stability % Remaining
in vitro [15] = settings: human; for Papp A→B at 120 min, 3 μM / Papp B→A at 120 min, 3 μM: Caco-2, pH 7.4
in vitro [16] = settings: cynomolgus monkey, plasma, pH 7.4
in vitro [17] = settings: beagle, dog, plasma, pH 7.4
in vitro [18] = settings: CD-1, mouse, plasma, pH 7.4, % bound to plasma
in vitro [19] = settings: SD, rat, plasma, pH 7.4, % bound to plasma
in vitro [20] = settings: human, plasma, pH 7.4, % bound to plasma
[21] = Caco-2, pH 7.4, Caco-2 Mean Recovery % A to B
[22] = Caco-2, pH 7.4, Caco-2 Mean Recovery % B to A

Question: What does the source list for `CN(C)C(=S)SCC1=C(C(=O)O)N2C(=O)[C@@H](NC(=O)Cc3cccs3)[C@H]2SC1` [TBBL-0000009]?
Answer: Mtb H37Rv R + CLAV (MIC90) (Mtb H37Rv [1]): 4 µM; Mtb H37Rv R (MIC90) (Mtb H37Rv [1]): 8 µM; Mtb H37Rv NR + CLAV (MIC90) (Mtb H37Rv [2]): > 100 µM; Mtb H37Rv NR (MIC90) (Mtb H37Rv [2]): > 100 µM; E.coli R + CLAV (MIC90) (E. coli): > 100 µM; P.aeruginosa R + CLAV (MIC90) (P. aeruginosa): > 100 µM; S.aureus R + CLAV (MIC90) (S. aureus): 1 µM; C.albicans R (MIC90) (C. albicans): > 100 µM; HepG2 LD50 (HepG2 cells): 6.6 µM; Log10 CFU per mouse (lungs), Mean (wild-type Mtb H37Rv): 8.7 Log10 CFU; reduction of lung CFU compared to untreated control mice (wild-type Mtb H37Rv; mouse, in vivo): ~0.4 log10; Caco-2 Rank Papp (Caco-2 cells): Moderate; Tlast [3]: 4.0 h; Tlast [4]: 6.0 h; AUC(0-t) (in vivo [5]; iv, 5 mg/kg): 20.3 µg·h/mL; Vd (in vivo [5]; iv, 5 mg/kg): 0.18 L/kg; clearance (in vivo [5]; iv, 5 mg/kg): 0.255 L/h/kg; half-life (in vivo [5]; iv, 5 mg/kg): 30 min; k el (in vivo [5]; iv, 5 mg/kg): 0.000389 s⁻¹; AUC(0-t) (in vivo [5]; po, 25 mg/kg): 1.36 µg·h/mL; bioavailability (in vivo [5]; po, 25 mg/kg): 1.33%; AUC(0-t) (in vivo [6]): 8.81 ± 0.675 µg·h/mL; Cmax (in vivo [6]): 2.65 ± 0.266 µg/mL; Tmax (in vivo [6]): 120 to 240 min; AUC(0-t) (in vivo [7]): 0.975 µg·h/mL; Cmax (in vivo [7]): 0.38 µg/mL; Tmax (in vivo [7]): 30 min; remaining at 6 h, 10 μM (physchem [8]): 85.3%; remaining at 24 h, 10 μM (physchem [8]): 90.9%; remaining at 1 h, 10 μM (physchem [9]): 31.7%; remaining at 24 h, 10 μM (physchem [9]): 9.96%; remaining at 2 h, 2 μM (in vitro [10]): 93%; remaining at 2 h, 2 μM (in vitro [11]): 95.8%; remaining at 2 h, 2 μM (in vitro [12]): 104%; remaining at 2 h, 2 μM (in vitro [13]): 133%; remaining at 2 h, 2 μM (in vitro [14]): 97.9%; Papp A→B at 120 min, 3 μM (in vitro [15]): < 5 nm/s; Papp B→A at 120 min, 3 μM (in vitro [15]): < 4.3 nm/s; recovery at 120 min, 3 μM (in vitro [15]; [21]): < 98.3%; recovery at 120 min, 3 μM (in vitro [15]; [22]): < 103%; fraction unbound at 4 h, 2 μM (in vitro [16]): 0.047; fraction unbound at 4 h, 2 μM (in vitro [17]): 0.084; fraction unbound at 4 h, 2 μM (in vitro [18]): 0.095; fraction unbound at 4 h, 2 μM (in vitro [19]): 0.022; fraction unbound at 4 h, 2 μM (in vitro [20]): 0.034

Question: What does the source list for `O=C(CCCC(NC(=O)c1ccc(Cl)cc1Cl)C(=O)O)N[C@@H]1C(=O)N2C(C(=O)O)=C(CSc3cccc[n+]3[O-])CS[C@H]12` (some centres unmarked) [TBBL-0000552]?
Answer: Mtb H37Rv R + CLAV (MIC90) (Mtb H37Rv [1]): 2.9 µM; Mtb H37Rv R (MIC90) (Mtb H37Rv [1]): 2.8 µM; Mtb H37Rv NR + CLAV (MIC90) (Mtb H37Rv [2]): 2.1 µM; Mtb H37Rv NR (MIC90) (Mtb H37Rv [2]): 1.9 µM; E.coli R + CLAV (MIC90) (E. coli): 92.6 µM; P.aeruginosa R + CLAV (MIC90) (P. aeruginosa): > 100 µM; S.aureus R + CLAV (MIC90) (S. aureus): > 100 µM; C.albicans R (MIC90) (C. albicans): > 100 µM; HepG2 LD50 (HepG2 cells): 74.3 µM; Log10 CFU per mouse (lungs), Mean (wild-type Mtb H37Rv): 9.4 Log10 CFU; Caco-2 Rank Papp (Caco-2 cells): Low; Tlast [3]: 4.0 h; Tlast [4]: 3.0 h; AUC(0-t) (in vivo [5]; iv, 5 mg/kg): 7.57 µg·h/mL; Vd (in vivo [5]; iv, 5 mg/kg): 0.74 L/kg; clearance (in vivo [5]; iv, 5 mg/kg): 0.66 L/h/kg; half-life (in vivo [5]; iv, 5 mg/kg): 46.8 min; k el (in vivo [5]; iv, 5 mg/kg): 0.000247 s⁻¹; AUC(0-t) (in vivo [5]; po, 25 mg/kg): 0.042 µg·h/mL; bioavailability (in vivo [5]; po, 25 mg/kg): 0.11%; AUC(0-t) (in vivo [6]): 61.9 ± 24.9 µg·h/mL; Cmax (in vivo [6]): 29.9 ± 11 µg/mL; Tmax (in vivo [6]): 60 to 120 min; AUC(0-t) (in vivo [7]): 3.66 µg·h/mL; Cmax (in vivo [7]): 6.19 µg/mL; Tmax (in vivo [7]): 30 min; remaining at 6 h, 10 μM (physchem [8]): 111%; remaining at 24 h, 10 μM (physchem [8]): 106%; remaining at 1 h, 10 μM (physchem [9]): 105%; remaining at 24 h, 10 μM (physchem [9]): 61.5%; remaining at 2 h, 2 μM (in vitro [10]): 89.4%; remaining at 2 h, 2 μM (in vitro [11]): 77.8%; remaining at 2 h, 2 μM (in vitro [12]): 77.9%; remaining at 2 h, 2 μM (in vitro [13]): 119%; remaining at 2 h, 2 μM (in vitro [14]): 78.6%; Papp A→B at 120 min, 3 μM (in vitro [15]): < 4.3 nm/s; Papp B→A at 120 min, 3 μM (in vitro [15]): 3.8 nm/s; recovery at 120 min, 3 μM (in vitro [15]; [21]): < 106%; recovery at 120 min, 3 μM (in vitro [15]; [22]): 123%; fraction unbound at 4 h, 2 μM (in vitro [16]): 0.198; fraction unbound at 4 h, 2 μM (in vitro [17]): 0.417; fraction unbound at 4 h, 2 μM (in vitro [18]): 0.439; fraction unbound at 4 h, 2 μM (in vitro [19]): 0.109; fraction unbound at 4 h, 2 μM (in vitro [20]): 0.143
